Results published in patent US9221862B2, “Erythromycin ethylsuccinate crystalline hydrate, preparation and uses thereof” (priority 2011, dated 2015).

Assay: Hygroscopicity test according to CP2005 (RH 70%, 25° C.)
Format: physicochemical
Settings: sampling time 48 h, 5 grams of sample
Protocol: The erythromycin ethylsuccinate crystalline hydrate according to the present invention was stable during storage. The above sample was sealed in vials and subjected to accelerated stability test at 30° C. using HPLC (C18 reverse phase column, 4.6×250 mm, 5 μm), mobile phase: 10 mmol/L sodium dodecyl sulfate solution containing 0.1% triethylamine (pH adjusted to 3.4 with phosphoric acid)—acetonitrile (55:45), detection wavelength was 205 nm, and the flow rate is 1.0 ml/min, and the change of relevant substances and content was detected. […] According to CP2005, 5 grams of the sample of the present invention was, at 25° C., placed in a relative humidity of 70% in the test for hygroscopicity. It is surprising that erythromycin ethylsuccinate hydrate leads to less hygroscopic weight gain. […] In addition, the deliquescence of anhydride makes it necessary to isolate from air during processing to prevent adhesions, while the hydrate has good sliding properties, thereby improving the operability of the formulation.

Substance	hygroscopic weight gain %, compared to 0 h [%]
Erythromycin Ethylsuccinate 0.5 H2O Hydrate	0.2
Erythromycin Ethylsuccinate 0.25 H2O Hydrate	0.59
